Patent US20250108036A1, “COMPOSITIONS FOR REMOVING SENESCENT CELLS AND USES THEREOF” (LIFECEUTIX CO., LTD., priority 2021, published 2025)

Tests used:
[1] = tested on: urea, creatinine, Agtr1a mRNA; assay: kidney damage markers in doxorubicin-aged mice (Example 8-9); format: in vivo, C57BL6J mice; settings: LX-112 70 mg/kg oral daily 21 days, DOX without LX = 100%
Procedure: After adapting 8-week-old male C57BL6J mice (purchased from KRIBB Laboratory Animal Resource Center) to the experimental environment for 1 week, doxorubicin, an anticancer drug, was administered intraperitoneally at a concentration of 10 mg/kg, and mice that were induced to age for more than 10 days were assigned to an experimental group and a control group. LX-112 was mixed with 0.5% CMC-Na solution (purchased from Sigma) and administered orally at a concentration of 70 mg/kg daily for 21 days. The control group was administered only the solution in the same volume. After drug administration was completed, the method described in each Example below was performed.
The amounts of urea and creatinine, markers of kidney damage, in serum collected from mice were measured using spectrophotometry in the same manner as in Example 7-8. […] The amount of each factor after aging was induced by treatment with the anticancer drug was calculated as 100% and compared it with the amount of each factor after treatment with LX-112.

p16, p21 = assay: p16 and p21 mRNA qRT-PCR in obesity-aged (DIO) mice (Example 9-2); format: in vivo, C57BL6J mice; settings: LX-112 70 mg/kg oral daily 21 days, DIO without LX = 100%
Procedure: (§1) 15-week-old male C57BL6J mice (purchased from Jackson Laboratories), whose obesity was induced by a high-fat diet, were adapted to the experimental environment for one week, and then the mice were randomized into an experimental group and a control group. LX-112 was mixed with 0.5% CMC-Na solution (purchased from Sigma) and administered orally at a concentration of 70 mg/kg daily for 21 days. The control group was administered only the solution in the same volume. After drug administration was completed, the method described in each Example below was performed. Mice were sacrificed and the weight of adipose tissue in each area was measured.
Mice were sacrificed in the same manner as in Example 7-2, RNA was extracted from the organ tissue of each region, and qRT-PCR (quantitative real-time PCR) was performed and analyzed using the synthesized cDNA. […] Table 54 calculates the mRNA amounts of p16 and p21 after aging induced by obesity as 100% and compares them with the mRNA amounts of p16 and p21 after treatment with LX-112.

IL6, activin A = assay: serum IL6 and activin A ELISA in obesity-aged mice (Example 9-3); format: in vivo, C57BL6J mice; settings: LX-112 70 mg/kg oral daily 21 days
Procedure: as §1
Using the same method as in Example 7-5, the amount of IL6 and activin A, which are aging-related inflammation secretory factors (SASP), were measured in serum collected from mice using an enzyme-linked immunosorbent assay (ELISA Kit, purchased from R&D Systems).

HMGN1 = HMGN1 ELISA in culture medium of A549 cancer cells (Example 12, Table 66); format: cell-based, human; settings: Homo sapiens, A549, doxorubicin-induced senescent A549 cells, test compound 30 μM, ELISA, DMSO = 100; read-out: HMGN1 (amount of HMGN1 secreted in the cell culture)

Structure (SMILES): O=c1c2ccccc2[se]n1CCn1[se]c2ccccc2c1=O [LX-112, 1,2-[bis(1,2-benzisoselenazolone-3(2H)-ketone)]ethane]
- Agtr1a mRNA (%) [1]: 75 (±9) %
- Creatinine (%) ([1]; serum): 89 (±4) %
- Urea (%) ([1]; serum): 91.2 (±1.2) %
- p16 mRNA (%) Liver (p16, p21): 71.3%
- p16 mRNA (%) Lung (p16, p21): 81%
- p16 mRNA (%) Muscle (p16, p21): 77.8%
- p16 mRNA (%) Skin (p16, p21): 79.1%
- p16 mRNA (%) asWAT (p16, p21): 84.1%
- p16 mRNA (%) eWAT (p16, p21): 61.2%
- p16 mRNA (%) iBAT (p16, p21): 89.2%
- p16 mRNA (%) iWAT (p16, p21): 79.1%
- p21 mRNA (%) Liver (p16, p21): 62.9%
- p21 mRNA (%) Lung (p16, p21): 79.3%
- p21 mRNA (%) Muscle (p16, p21): 73.2%
- p21 mRNA (%) Skin (p16, p21): 78.1%
- p21 mRNA (%) asWAT (p16, p21): 82.1%
- p21 mRNA (%) eWAT (p16, p21): 67.2%
- p21 mRNA (%) iBAT (p16, p21): 70%
- p21 mRNA (%) iWAT (p16, p21): 71.2%
- Activin A (%) (IL6, activin A): 64.5 (±12.3) %
- IL6 (%) (IL6, activin A): 51.8 (±14.2) %

Structure (SMILES): COC(=O)c1ccc([C@H]2c3[nH]c4ccccc4c3C[C@H](C(=O)OC)N2C(=O)CCl)cc1 [LX-405]
- activity at 30 µM (HMGN1): 310%
